Laboratory results: PMC4754833, “Rilpivirine analogs potently inhibit drug-resistant HIV-1 mutants” (Retrovirology, 2016)

How the values were obtained:
HIV-1 RT mutant L100I = system: HIV-1 RT mutant L100I; design: method as in PMID 23217210; conditions: previous study; cited from earlier work
HIV-1 RT mutant G190A = experiment: single round infection assay, G190A; assay type: cell-based; conditions: for IC50: Human immunodeficiency virus 1
Procedure: (§1) The human osteosarcoma cell line, HOS, was obtained from Dr. Richard Schwartz (Michigan State University, East Lansing, MI) and grown in Dulbecco’s modified Eagle’s medium (Invitrogen, Carlsbad, CA) supplemented with 5 % (v/v) fetal bovine serum, 5 % newborn calf serum, and penicillin (50 units/ml) plus streptomycin (50 µg/ml; Quality Biological, Gaithersburg, MD). Virion production and single-round infectivity assays were used to determine antiviral activity (IC50 values) of the compounds as previously described.
(§2) pNLNgoMIVR-ΔEnv.LUC has been described previously. The RT open reading frame was removed from pNLNgoMIVR-ΔEnv.LUC (digestion with SpeI and SalI) and inserted between the SpeI and SalI sites of pBluescript II KS+. Using that construct as the wild-type template, we prepared the following HIV-1 RT mutants using the QuikChange II XL (Stratagene, La Jolla, CA) site-directed mutagenesis protocol kit: L100I, K103N, Y181C, Y188L, H221Y, K103N/Y181C, G190A, G190S, M230L, P236L, L100I/K103N, K103N/P225H, V106A/G190A/F227L, V106A, L234I, V106A/F227L, V106A/L234I, V106A/F227L/L234I, E40K, D67E, K101E, V111A, E138K, M184I, M184V, K101E/M184I, K101E/M184V, E138K/M184I, E138K/M184V, K101P, Y181I, and K101P/V179I. The following sense oligonucleotides were used with matching cognate antisense oligonucleotides (not shown) (Integrated DNA Technologies, Coralville, IA) in the mutagenesis: L100I, 5′-[…]-3′; L100I 2-103, 5′-[…]-3′; K103N, 5′-[…]-3′; Y181C, 5′-[…]-3′; Y188L, 5′-[…]-3′; H221Y, 5′-[…]-3′; G190A, 5′-[…]-3′; G190S, 5′-[…]-3′; P225H, 5′-[…]-3′; F227, 5′-[…]-3′; M230L, 5′-[…]-3′; P236L, 5′-[…]-3′; V106A, 5′-[…]-3′; L234I, 5′-[…]-3′; E40K, 5′-[…]-3′; D67E, 5′-[…]-3′; K101E, 5′-[…]-3′; V111A, 5′-[…]-3′; E138K, 5′-[…]-3′; M184I, 5′-[…]-3′; M184V, 5′-[…]-3′; K101P, 5′-[…]-3′; Y181I, 5′-[…]-3′; K101P/V179I, 5′-[…]-3′. The double mutants K103N/Y181C, K103N/P225H, and L100I/K103N were made using the previously generated K103N mutant and the appropriate oligonucleotides to add the second mutation, Y181C, P225, and L100I respectively. The double mutants V106A/F227L and V106A/L234I were prepared using the previously generated V106A mutant and the appropriate oligonucleotides to add the second mutation, F227L and L234I, respectively. The double mutants K101E/M184I and K101E/M184V were constructed using the previously generated K101E mutant and the appropriate oligonucleotides to add the second mutation, M184I and M184V, respectively. The double mutants E138K/M184I and E138K/M184V were constructed using the previously generated E138K mutant and the appropriate oligonucleotides for the second mutation, M184I and M184V, respectively. The triple mutant V106A/F227L/L234I was made using the previously generated V106A/F227L double mutant and the appropriate oligonucleotides for the third mutation, L234I. The triple mutant V106A/G190A/F227L was constructed in a series of steps using the previously generated V106A mutant and the appropriate oligonucleotides for the second mutation, G190A, to generate the double mutant V106A/G190A, and then the triple mutant was made using double mutant V106A/G190A and oligonucleotides for the third mutation, F227L. The DNA sequence of each construct was verified by DNA sequence determination. The sequences encoding the mutant RTs were then subcloned into pNLNgoMIVR-ΔEnv.LUC (between the KpnI and SalI sites) to produce the mutant HIV-1 constructs. These DNA sequences were also checked independently by DNA sequence determination.
(§3) 10.1186/s12977-016-0244-2 The IC50 values (nM) of RPV and the RPV analogs were determined against the NNRTI resistant mutants were measured by using a single round infection assay, n = 4. The concentrations (nM) are measured by reductions in luciferase reporter activity followed by the standard deviations. […]

[1] = system: HIV-1 RT mutant V106A/F227L; experiment: single round infection assay, V106A/F227L; assay type: cell-based; conditions: V106A/F227L vs WT
Procedure: as §1, §2, §3

HIV-1 RT mutant H221Y = system: HIV-1 RT mutant H221Y; design: method as in PMID 23217210; conditions: previous study; cited from earlier work
HIV-1 RT mutant K101E = experiment: single round infection assay, K101E; assay type: cell-based; conditions: for IC50: ± SD, n=4; for fold-change of IC50 of the mutant relative to WT: K101E vs WT
Procedure: as §1, §2, §3

HIV-1 RT mutant K101P = experiment: single round infection assay, K101P; assay type: cell-based; conditions: for IC50: Human immunodeficiency virus 1; for fold-change of IC50 of the mutant relative to WT: K101P vs WT
Procedure: as §1, §2, §3

[2] = system: HIV-1 RT mutant L100I/K103N; experiment: single round infection assay, L100I/K103N; assay type: cell-based; conditions: for fold-change of IC50 of the mutant relative to WT: L100I/K103N vs WT; for IC50: Human immunodeficiency virus 1, L100I/K103N, ± SD, n=4, limit of detection 100 nM
Procedure: as §1, §2, §3

WT HIV-1 = experiment: single round infection luciferase assay, WT HIV-1; assay type: cell-based; conditions: Human immunodeficiency virus 1
Procedure: as §1, §2, §3

HIV-1 RT mutant G190S = experiment: single round infection assay, G190S; assay type: cell-based; conditions: Human immunodeficiency virus 1
Procedure: as §1, §2, §3

[3] = system: HIV-1 RT mutant K101P/V179I; experiment: single round infection assay, K101P/V179I; assay type: cell-based; conditions: for IC50: Human immunodeficiency virus 1
Procedure: as §1, §2, §3

[4] = system: HIV-1 RT mutant E138K/M184V; experiment: single round infection assay, E138K/M184V; assay type: cell-based; conditions: for fold-change of IC50 of the mutant relative to WT: E138K/M184V vs WT; for IC50: ± SD, n=4
Procedure: as §1, §2, §3

[5] = system: HIV-1 RT mutant K103N/P225H; experiment: single round infection assay, K103N/P225H; assay type: cell-based; conditions: for IC50: Human immunodeficiency virus 1; for fold-change of IC50 of the mutant relative to WT: K103N/P225H vs WT
Procedure: as §1, §2, §3

HIV-1 RT mutant D67E = experiment: single round infection assay, D67E; assay type: cell-based; conditions: for fold-change of IC50 of the mutant relative to WT: D67E vs WT; for IC50: ± SD, n=4
Procedure: as §1, §2, §3

[6] = Human immunodeficiency virus 1, K101E
[7] = Human immunodeficiency virus 1, E138K/M184V
[8] = Human immunodeficiency virus 1, D67E

SMILES | IC50 (HIV-1 RT mutant L100I) | IC50 (HIV-1 RT mutant G190A) | fold-change of IC50 of the mutant relative to WT [1] | IC50 (HIV-1 RT mutant H221Y) | IC50 (HIV-1 RT mutant K101E; [6]) | fold-change of IC50 of the mutant relative to WT (HIV-1 RT mutant K101E) | IC50 (HIV-1 RT mutant K101E; K101E) | IC50 (HIV-1 RT mutant K101P) | fold-change of IC50 of the mutant relative to WT (HIV-1 RT mutant K101P) | fold-change of IC50 of the mutant relative to WT [2] | IC50 (WT HIV-1) | IC50 (HIV-1 RT mutant G190S) | IC50 [3] | fold-change of IC50 of the mutant relative to WT [4] | IC50 ([4]; E138K/M184V) | IC50 [4, 7] | IC50 [5] | fold-change of IC50 of the mutant relative to WT [5] | fold-change of IC50 of the mutant relative to WT (HIV-1 RT mutant D67E) | IC50 (HIV-1 RT mutant D67E; [8]) | other results
Cc1cc(/C=C/C#N)cc(C)c1Nc1nc(Nc2ccc(C#N)cc2)ncc1[N+](=O)[O-] [compound 6] | < 7 nM | 0.2 ± 0.09 nM | 4 | < 7 nM | < 2.5 nM | 5 | 2.6 ± 0.96 nM | 2.5 nM | 5 | 4 | 0.5 ± 0.17 nM | 0.2 ± 0.09 nM | 12.6 nM | 3 | 1.63 ± 0.08 nM | < 2.5 nM | 0.8 ± 0.06 nM | < 2 | 3 | < 2.5 nM | fold-change of IC50 of the mutant relative to WT ([3]; K101P/V179I vs WT): 25; IC50 (HIV-1 RT mutant D67E; D67E): 1.7 ± 0.14 nM
Cc1cc(/C=C/C#N)cc(C)c1Nc1nc(Nc2ccc(C#N)cc2)c2nc[nH]c2n1 [compound 13] | < 7 nM | 0.3 ± 0.04 nM | < 2 | < 7 nM |  | 4 |  | 18.1 nM | 70 | 2 | 0.26 ± 0.04 nM | 0.12 nM | > 100 nM | 4 |  |  | 0.3 ± 0.09 nM | < 2 | 6 | < 2.5 nM | fold-change of IC50 of the mutant relative to WT (HIV-1 RT mutant G190A; G190A vs WT): < 2; IC50 (HIV-1 RT mutant D67E; D67E): 1.6 ± 0.4 nM
Cc1cc(/C=C/C#N)cc(C)c1Nc1nc(Nc2ccc3scnc3c2)c2nc[nH]c2n1 [compound 21] | < 7 nM | 0.3 ± 0.12 nM | 27 | < 7 nM | 3.9 ± 0.14 nM | 10 |  | > 100 nM |  | 92 | 0.41 ± 0.1 nM | 0.2 ± 0.04 nM | > 100 nM | 6 | 2.3 ± 0.7 nM | < 2.5 nM | 1.4 ± 0.07 nM | 3 | 9 | 3.6 ± 0.6 nM | IC50 [2]: 37.6 nM
Cc1cc(/C=C/C#N)cc(C)c1Nc1nc(Nc2ccc(C(F)(F)F)cc2)c2nc[nH]c2n1 [compound 15] | < 7 nM | 0.77 ± 0.19 nM |  | < 7 nM | < 6 nM | 4 | 6.2 ± 1.2 nM | > 100 nM |  | 9 | 1.7 ± 0.3 nM | 0.35 ± 0.05 nM | > 100 nM | < 2 | 3.1 ± 0.4 nM | < 6 nM | 1.5 ± 0.31 nM |  | 8 | 13.1 nM | IC50 [2]: 15.5 nM
